These results are taken from the SangsterLogP compilation.

Structures are written as SMILES.

The first series can be described thus: method code SF-AS, from DOI: 10.2307/3575799, PMID: 7199747. The settings on record: pH 7.4.
Take `CC(O)CN(CC(C)O)C(=O)Cn1ccnc1[N+](=O)[O-]` (stereo not given): the logD is -0.96.
With `CC(=O)OCCN(CCOC(C)=O)C(=O)Cn1ccnc1[N+](=O)[O-]`, the logD was -0.64.
The same measure, in the same setting: then `CC(=O)OCC(CNC(=O)Cn1ccnc1[N+](=O)[O-])OC(C)=O` (stereo not given), with -0.77.

A further series in a line: method code SF, from DOI: 10.2307/3575799, PMID: 7199747. The settings on record: pH 7.4.
`O=COCCN(CCOC=O)C(=O)Cn1ccnc1[N+](=O)[O-]` yielded a logD of -1.66.
`CC(C(=O)NCCO)n1ccnc1[N+](=O)[O-]` (stereo not given) registered a logD of -1.16.
For the compound `NC(=O)Cn1ccnc1[N+](=O)[O-]`, the pH-dependent lipophilicity (logD) is -1.22.
The compound `CCC(=O)OCCN(CCOC(=O)CC)C(=O)Cn1ccnc1[N+](=O)[O-]` yielded a log distribution coefficient (logD) of 0.44.
On to `CC(C(=O)NCC(O)CO)n1ccnc1[N+](=O)[O-]` (stereo not given), for which the logD is -1.64.
Consider `O=C(Cn1ccnc1[N+](=O)[O-])NC(CO)(CO)CO`, for which the logD was -1.77.
With `O=C(Cn1ccnc1[N+](=O)[O-])N(CCO)CCO`, the pH-dependent lipophilicity (logD) is -1.59.

Broadly, the logD is lipophilicity at a set pH, counting ionised and neutral species. Low readings indicate lower lipophilicity, high ones higher lipophilicity.
